Where “and” joins values, the source holds several entries; their conditions need not be identical. Equal values may be shown once. ± gives the expanded uncertainty stated by the source.
assay: not given; conditions: 343.15 K; 101.33 kPa; Liquid; Sing-around technique in a fixed-path interferometer

speed of sound [m/s]	Structure (SMILES)
1218.5 ± 1.5	COCCOCCOCCOCCOC [2,5,8,11,14-pentaoxapentadecane]
1174 ± 1.5	COCCOCCOCCOC [2,5,8,11-tetraoxadodecane]
1105.8 ± 2	COCCOCCOC [2,5,8-trioxanonane]

Second part, the molecule before the results:

Structure (SMILES)	speed of sound [m/s]
COCCOCCO [2-(2-methoxyethoxy)ethanol]	1262.7 ± 1.5
OCCO [1,2-ethanediol]	1547.4 ± 1.3
OCCOCCO [diethylene glycol]	1470.1 ± 1.6

same assay, conditions: 343.15 K; 101.33 kPa; Liquid; Vibrating tube method

mass density	Structure (SMILES)
966.5 ± 2 kg/m3 and 965.3 ± 2 kg/m3	COCCOCCOCCOCCOC [2,5,8,11,14-pentaoxapentadecane]
938.6 ± 2 kg/m3 and 936.9 ± 2 kg/m3	COCCOCCOCCOC [2,5,8,11-tetraoxadodecane]
894.8 ± 1.1 kg/m3 and 893.4 ± 1.1 kg/m3	COCCOCCOC [2,5,8-trioxanonane]

The next lines start with the molecule.

Structure (SMILES)	mass density
COCCOCCO [2-(2-methoxyethoxy)ethanol]	976.5 ± 2 kg/m3 and 975 ± 2 kg/m3
OCCO [1,2-ethanediol]	1078.9 ± 1 kg/m3 and 1077.5 ± 1 kg/m3
OCCOCCO [diethylene glycol]	1081.5 ± 2 kg/m3 and 1080 ± 2 kg/m3

same assay, conditions: 348.15 K; 101.33 kPa; Liquid; Concentric cylinders viscometry

viscosity [mPa·s]	Structure (SMILES)
1.358 ± 0.055	COCCOCCOCCOCCOC [2,5,8,11,14-pentaoxapentadecane]
0.903 ± 0.037	COCCOCCOCCOC [2,5,8,11-tetraoxadodecane]
0.537 ± 0.022	COCCOCCOC [2,5,8-trioxanonane]

Second part, the molecule before the results:

Structure (SMILES)	viscosity [mPa·s]
COCCOCCO [2-(2-methoxyethoxy)ethanol]	1.268 ± 0.052
OCCO [1,2-ethanediol]	3.552 ± 0.14
OCCOCCO [diethylene glycol]	5.019 ± 0.2

same assay, conditions: 348.15 K; 101.33 kPa; Liquid; Vibrating tube method

mass density [kg/m3]	Structure (SMILES)
961.9 ± 2	COCCOCCOCCOCCOC [2,5,8,11,14-pentaoxapentadecane]
933.8 ± 2	COCCOCCOCCOC [2,5,8,11-tetraoxadodecane]
889.7 ± 1.1	COCCOCCOC [2,5,8-trioxanonane]

Continued, molecule first:

Structure (SMILES)	mass density [kg/m3]
COCCOCCO [2-(2-methoxyethoxy)ethanol]	971.8 ± 2
OCCO [1,2-ethanediol]	1075.2 ± 1
OCCOCCO [diethylene glycol]	1077.8 ± 2

same assay, conditions: 353.15 K; 101.33 kPa; Liquid; Concentric cylinders viscometry

viscosity [mPa·s]	Structure (SMILES)
1.25 ± 0.051	COCCOCCOCCOCCOC [2,5,8,11,14-pentaoxapentadecane]
0.814 ± 0.033	COCCOCCOCCOC [2,5,8,11-tetraoxadodecane]
0.505 ± 0.021	COCCOCCOC [2,5,8-trioxanonane]

The next lines start with the molecule.

Structure (SMILES)	viscosity [mPa·s]
COCCOCCO [2-(2-methoxyethoxy)ethanol]	1.155 ± 0.047
OCCO [1,2-ethanediol]	3.161 ± 0.13
OCCOCCO [diethylene glycol]	4.429 ± 0.18

same assay, conditions: 353.15 K; 101.33 kPa; Liquid; Vibrating tube method

mass density [kg/m3]	Structure (SMILES)
957.3 ± 2	COCCOCCOCCOCCOC [2,5,8,11,14-pentaoxapentadecane]
929 ± 2	COCCOCCOCCOC [2,5,8,11-tetraoxadodecane]
884.6 ± 1.1	COCCOCCOC [2,5,8-trioxanonane]

More lines, now with the values behind:

Structure (SMILES)	mass density [kg/m3]
COCCOCCO [2-(2-methoxyethoxy)ethanol]	967.2 ± 2
OCCO [1,2-ethanediol]	1071.5 ± 1
OCCOCCO [diethylene glycol]	1074.1 ± 2

same assay, conditions: 358.15 K; 101.33 kPa; Liquid; Concentric cylinders viscometry

viscosity [mPa·s]	Structure (SMILES)
1.188 ± 0.048	COCCOCCOCCOCCOC [2,5,8,11,14-pentaoxapentadecane]
0.801 ± 0.033	COCCOCCOCCOC [2,5,8,11-tetraoxadodecane]
0.486 ± 0.02	COCCOCCOC [2,5,8-trioxanonane]

The next lines start with the molecule.

Structure (SMILES)	viscosity [mPa·s]
COCCOCCO [2-(2-methoxyethoxy)ethanol]	1.094 ± 0.045
OCCO [1,2-ethanediol]	2.835 ± 0.11
OCCOCCO [diethylene glycol]	3.944 ± 0.16

same assay, conditions: 358.15 K; 101.33 kPa; Liquid; Vibrating tube method

mass density [kg/m3]	Structure (SMILES)
952.7 ± 2	COCCOCCOCCOCCOC [2,5,8,11,14-pentaoxapentadecane]
924.2 ± 2	COCCOCCOCCOC [2,5,8,11-tetraoxadodecane]
879.4 ± 1.1	COCCOCCOC [2,5,8-trioxanonane]

Further lines, the molecule ahead of its results:

Structure (SMILES)	mass density [kg/m3]
COCCOCCO [2-(2-methoxyethoxy)ethanol]	962.5 ± 2
OCCO [1,2-ethanediol]	1067.8 ± 1
OCCOCCO [diethylene glycol]	1070.3 ± 2

same assay, conditions: 363.15 K; 101.33 kPa; Liquid; Concentric cylinders viscometry

viscosity [mPa·s]	Structure (SMILES)
1.115 ± 0.045	COCCOCCOCCOCCOC [2,5,8,11,14-pentaoxapentadecane]
0.756 ± 0.031	COCCOCCOCCOC [2,5,8,11-tetraoxadodecane]
0.464 ± 0.02	COCCOCCOC [2,5,8-trioxanonane]

The remaining lines, values behind:

Structure (SMILES)	viscosity [mPa·s]
COCCOCCO [2-(2-methoxyethoxy)ethanol]	1.019 ± 0.042
OCCO [1,2-ethanediol]	2.552 ± 0.1
OCCOCCO [diethylene glycol]	3.527 ± 0.14

same assay, conditions: 363.15 K; 101.33 kPa; Liquid; Vibrating tube method

mass density [kg/m3]	Structure (SMILES)
948.1 ± 2	COCCOCCOCCOCCOC [2,5,8,11,14-pentaoxapentadecane]
919.4 ± 2	COCCOCCOCCOC [2,5,8,11-tetraoxadodecane]
874.2 ± 1.1	COCCOCCOC [2,5,8-trioxanonane]

The next lines start with the molecule.

Structure (SMILES)	mass density [kg/m3]
COCCOCCO [2-(2-methoxyethoxy)ethanol]	957.9 ± 2
OCCO [1,2-ethanediol]	1064 ± 1
OCCOCCO [diethylene glycol]	1066.6 ± 2

same assay, conditions: 368.15 K; 101.33 kPa; Liquid; Concentric cylinders viscometry

viscosity [mPa·s]	Structure (SMILES)
1.047 ± 0.043	COCCOCCOCCOCCOC [2,5,8,11,14-pentaoxapentadecane]
0.715 ± 0.029	COCCOCCOCCOC [2,5,8,11-tetraoxadodecane]
0.444 ± 0.019	COCCOCCOC [2,5,8-trioxanonane]

Second part, the molecule before the results:

Structure (SMILES)	viscosity [mPa·s]
COCCOCCO [2-(2-methoxyethoxy)ethanol]	0.95 ± 0.039
OCCO [1,2-ethanediol]	2.306 ± 0.093
OCCOCCO [diethylene glycol]	3.169 ± 0.13

same assay, conditions: 368.15 K; 101.33 kPa; Liquid; Vibrating tube method

mass density [kg/m3]	Structure (SMILES)
943.5 ± 2	COCCOCCOCCOCCOC [2,5,8,11,14-pentaoxapentadecane]
914.5 ± 2	COCCOCCOCCOC [2,5,8,11-tetraoxadodecane]
869 ± 1.1	COCCOCCOC [2,5,8-trioxanonane]

Continued, molecule first:

Structure (SMILES)	mass density [kg/m3]
COCCOCCO [2-(2-methoxyethoxy)ethanol]	953.1 ± 2
OCCO [1,2-ethanediol]	1060.2 ± 1
OCCOCCO [diethylene glycol]	1062.8 ± 2

same assay, conditions: 373.15 K; 101.33 kPa; Liquid; Concentric cylinders viscometry

viscosity [mPa·s]	Structure (SMILES)
0.978 ± 0.04	COCCOCCOCCOCCOC [2,5,8,11,14-pentaoxapentadecane]
0.65 ± 0.027	COCCOCCOCCOC [2,5,8,11-tetraoxadodecane]
0.441 ± 0.019	COCCOCCOC [2,5,8-trioxanonane]

Continued, molecule first:

Structure (SMILES)	viscosity [mPa·s]
COCCOCCO [2-(2-methoxyethoxy)ethanol]	0.877 ± 0.036
OCCO [1,2-ethanediol]	2.102 ± 0.085
OCCOCCO [diethylene glycol]	2.871 ± 0.12

same assay, conditions: 373.15 K; 101.33 kPa; Liquid; Vibrating tube method

mass density [kg/m3]	Structure (SMILES)
938.9 ± 2	COCCOCCOCCOCCOC [2,5,8,11,14-pentaoxapentadecane]
909.7 ± 2	COCCOCCOCCOC [2,5,8,11-tetraoxadodecane]
863.8 ± 1.1	COCCOCCOC [2,5,8-trioxanonane]

The next lines start with the molecule.

Structure (SMILES)	mass density [kg/m3]
COCCOCCO [2-(2-methoxyethoxy)ethanol]	948.5 ± 2
OCCO [1,2-ethanediol]	1056.4 ± 1
OCCOCCO [diethylene glycol]	1059 ± 2

assay: refractive index (Na D-line) (dimensionless); conditions: 283.15 K; 101.33 kPa; Liquid; Standard Abbe refractometry

refractive index	Structure (SMILES)
1.43599 ± 0.00061	COCCOCCOCCOCCOC [2,5,8,11,14-pentaoxapentadecane]
1.42712 ± 0.00061	COCCOCCOCCOC [2,5,8,11-tetraoxadodecane]
1.41249 ± 0.00066	COCCOCCOC [2,5,8-trioxanonane]

Second part, the molecule before the results:

Structure (SMILES)	refractive index
COCCOCCO [2-(2-methoxyethoxy)ethanol]	1.42914 ± 0.00061
OCCO [1,2-ethanediol]	1.43461 ± 0.00058
OCCOCCO [diethylene glycol]	1.45019 ± 0.00061

same assay, conditions: 288.15 K; 101.33 kPa; Liquid; Standard Abbe refractometry

refractive index	Structure (SMILES)
1.43414 ± 0.00061	COCCOCCOCCOCCOC [2,5,8,11,14-pentaoxapentadecane]
1.42498 ± 0.00061	COCCOCCOCCOC [2,5,8,11-tetraoxadodecane]
1.4102 ± 0.00066	COCCOCCOC [2,5,8-trioxanonane]

More lines, now with the values behind:

Structure (SMILES)	refractive index
COCCOCCO [2-(2-methoxyethoxy)ethanol]	1.42723 ± 0.00061
OCCO [1,2-ethanediol]	1.43312 ± 0.00058
OCCOCCO [diethylene glycol]	1.4486 ± 0.00061

same assay, conditions: 293.15 K; 101.33 kPa; Liquid; Standard Abbe refractometry

refractive index	Structure (SMILES)
1.43196 ± 0.00061	COCCOCCOCCOCCOC [2,5,8,11,14-pentaoxapentadecane]
1.42284 ± 0.00061	COCCOCCOCCOC [2,5,8,11-tetraoxadodecane]

Structure (SMILES)	refractive index
COCCOCCO [2-(2-methoxyethoxy)ethanol]	1.42498 ± 0.00061

Reference: the NIST ThermoML archive (doi:10.1021/acs.jced.5b00662)
